# Experimental data published in US20060281687A1, “Cyclin groove inhibitors” (priority 2003, published 2006).
# Non-standard residues stand in square brackets, D forms with d. Residues, ends and D or L forms follow the SMILES beside them. *: point of attachment. X14 = O=C(c1ccc(-n2cncn2)c([N+](=O)[O-])c1)*; X3 = Cc1nc(C(=O)*)nn1-c1ccc([N+](=O)[O-])cc1; X2 = CC(C)n1c(C(F)(F)F)nc2cc(C(=O)*)ccc21; X6 = O=C(COn1c(-c2ccccc2)nc2ccc(Cl)cc21)*; X10 = O=C(c1c(-c2ccccc2)nc2cccc(Cl)n12)*; X4 = Cc1nc(C(=O)*)nn1-c1cccc(C(F)(F)F)c1; X8 = COc1cc(-n2nc(C(=O)*)nc2C)c(Cl)cc1Cl; X11 = Cc1nc(C(=O)*)nn1-c1cc(Cl)cc(Cl)c1; Phe(4-F) = N[C@@H](Cc1ccc(F)cc1)C(=O)O; X13 = Cc1nc(C(=O)*)nn1-c1ccc(Cl)cc1Cl; X9 = O=C(COn1c(-c2ccccc2)nc2ccccc21)*; X5 = Cc1nc(C(=O)*)nn1-c1ccc(Cl)cc1; X7 = O=C(c1ccc2nc(-n3cccc3)sc2c1)*; X1 = Cc1nc(C(=O)*)nn1-c1ccc(F)cc1; X12 = O=C(c1ccc(N2CCNC2=S)cc1)*
# Key:
# CDK2/cyclin A [1] = target: T1, CDK2/cyclin A (Homo sapiens, UniProt P20248); assay: Competitive binding assay (fluorescence polarisation, fluorescein tracer peptide); conditions: purified recombinant human CDK2/cyclin A; tracer fluorescein-Ahx-His-Ala-Lys-Arg-Arg-Leu-Ile-Phe-NH2; 1 h room temperature; read-out: Inhibitory activity IC50 ± SD, Competitive binding assay
# Description: Competitive Binding Assay
# This assay was performed using half-area black 96-well microtitre plates. To each well were added: 10 μL assay buffer (25 mM HEPES pH 7, 10 mM NaCl, 0.01% Nonidet P-40, 1 mM dithiothreitol), 10 μL test compound solution (in 10% aq DMSO), 10 μL CDK2/cyclin A (ca. 2 μg purified recombinant human kinase complex) in assay buffer, and 10 μL tracer peptide solution (150 nM fluorescein-Ahx-His-Ala-Lys-Arg-Arg-Leu-Ile-Phe-NH2; refer McInnes, C. et al., 2003, Curr. Med. Chem. Anti-Cancer Agents, 3, 57; Atkinson, G. E. et al., 2002, Bioorg. Med. Chem. Lett., 12, 2501) in assay buffer. After incubation with shaking for 1 h at room temperature, fluorescence polarisation at 485-520 nm was measured using a Tecan Ultra reader. Half-maximal inhibition (IC50) was calculated from dose—response curves.
# CDK2/cyclin A [2] = target: T1, CDK2/cyclin A; assay: Functional kinase assay (phosphorylation of GST-pRb(773-928)); format: biochemical; conditions: recombinant human CDK2/cyclin A; GST-pRb(773-928) substrate; 100 μM ATP; 30 min at 30° C.; read-out: Inhibitory activity IC50 ± SD, Functional kinase assay
# Description: CDK2/cyclin A kinase assays (phosphorylation of natural retinoblastoma protein (pRb)) were performed in 96-well plates using recombinant proteins. To each well were added: 10 μL assay buffer (50 mM HEPES pH 7.4, 20 mM β-glycerophosphate, 5 mM EGTA, 2 mM dithiothreitol, 1 mM NaVO3, and 20 mM MgCl2), 5 μL GST-pRb(773-928) substrate stock solution,10 μL test compound solution, 10 μL (2-5 μg protein) of purified recombinant human CDK2/cyclin A stock. The reaction was initiated by addition of 10 μL/well Mg/ATP mix (15 mM MgCl2, 100 μM ATP with 30-50 kBq per well of [γ-^32P]-ATP) and mixtures were incubated with shaking for 30 min at 30° C. Reactions were stopped on ice, followed by addition of 5 μL/well of glutathione-Sepharose 4B (Amersham Biosciences) and further incubation with shaking for 30 min at room temperature. The mixtures were then filtered on Whatman GF/C filterplates and washed 4 times with 0.2 mL/well of 50 mM HEPES containing 1 mM ATP. Plates were dried, sealed, and scintillant (Microscint 40) was added. Incorporated radioactivity was measured using a scintillation counter (TopCount, Packard Instruments, Pangbourne, Berks, UK). Half-maximal inhibition (IC50) was calculated from dose—response curves.
IC50 (CDK2/cyclin A [1]) [µM],IC50 (CDK2/cyclin A [2]) [µM],Compound
12 ± 2,53 ± 25,CC(C)C[C@H](NC(=O)[C@H](CCCNC(=N)N)NC(=O)c1c(-c2ccccc2)nc2cccc(Cl)n12)C(=O)N[C@@H](CC(N)=O)C(=O)N[C@@H](Cc1ccc(F)cc1)C(N)=O [Compound 1] (X10-RLN[Phe(4-F)]-NH2)
0.93 ± 0.05,11 ± 7,COc1cc(-n2nc(C(=O)N[C@@H](CCCNC(=N)N)C(=O)N[C@@H](CC(C)C)C(=O)N[C@@H](CC(N)=O)C(=O)N[C@@H](Cc3ccc(F)cc3)C(N)=O)nc2C)c(Cl)cc1Cl [Compound 2] (X8-RLN[Phe(4-F)]-NH2)
4.1 ± 1.3,4.3 ± 2.1,Cc1nc(C(=O)N[C@@H](CCCNC(=N)N)C(=O)N[C@@H](CC(C)C)C(=O)N[C@@H](CC(N)=O)C(=O)N[C@@H](Cc2ccc(F)cc2)C(N)=O)nn1-c1ccc(Cl)cc1 [Compound 3] (X5-RLN[Phe(4-F)]-NH2)
3.6 ± 0.6,6.4 ± 0.3,Cc1nc(C(=O)N[C@@H](CCCNC(=N)N)C(=O)N[C@@H](CC(C)C)C(=O)N[C@@H](CC(N)=O)C(=O)N[C@@H](Cc2ccc(F)cc2)C(N)=O)nn1-c1ccc(Cl)cc1Cl [Compound 4] (X13-RLN[Phe(4-F)]-NH2)
5.8 ± 1.6,19 ± 3,CC(C)C[C@H](NC(=O)[C@H](CCCNC(=N)N)NC(=O)c1ccc(N2CCNC2=S)cc1)C(=O)N[C@@H](CC(N)=O)C(=O)N[C@@H](Cc1ccc(F)cc1)C(N)=O [Compound 5] (X12-RLN[Phe(4-F)]-NH2)
6.1 ± 1.2,4.4 ± 0.8,Cc1nc(C(=O)N[C@@H](CCCNC(=N)N)C(=O)N[C@@H](CC(C)C)C(=O)N[C@@H](CC(N)=O)C(=O)N[C@@H](Cc2ccc(F)cc2)C(N)=O)nn1-c1ccc(F)cc1 [Compound 6] (X1-RLN[Phe(4-F)]-NH2)
6.4 ± 1.8,5.4 ± 0.9,Cc1nc(C(=O)N[C@@H](CCCNC(=N)N)C(=O)N[C@@H](CC(C)C)C(=O)N[C@@H](CC(N)=O)C(=O)N[C@@H](Cc2ccc(F)cc2)C(N)=O)nn1-c1ccc([N+](=O)[O-])cc1 [Compound 7] (X3-RLN[Phe(4-F)]-NH2)
28 ± 4,26 ± 5,CC(C)C[C@H](NC(=O)[C@H](CCCNC(=N)N)NC(=O)c1ccc(-n2cncn2)c([N+](=O)[O-])c1)C(=O)N[C@@H](CC(N)=O)C(=O)N[C@@H](Cc1ccc(F)cc1)C(N)=O [Compound 8] (X14-RLN[Phe(4-F)]-NH2)
15 ± 2,37 ± 6,CC(C)C[C@H](NC(=O)[C@H](CCCNC(=N)N)NC(=O)COn1c(-c2ccccc2)nc2ccccc21)C(=O)N[C@@H](CC(N)=O)C(=O)N[C@@H](Cc1ccc(F)cc1)C(N)=O [Compound 9] (X9-RLN[Phe(4-F)]-NH2)
2.1 ± 0.2,3.7 ± 0.2,Cc1nc(C(=O)N[C@@H](CCCNC(=N)N)C(=O)N[C@@H](CC(C)C)C(=O)N[C@@H](CC(N)=O)C(=O)N[C@@H](Cc2ccc(F)cc2)C(N)=O)nn1-c1cc(Cl)cc(Cl)c1 [Compound 10] (X11-RLN[Phe(4-F)]-NH2)
12 ± 2,30 ± 16,CC(C)C[C@H](NC(=O)[C@H](CCCNC(=N)N)NC(=O)COn1c(-c2ccccc2)nc2ccc(Cl)cc21)C(=O)N[C@@H](CC(N)=O)C(=O)N[C@@H](Cc1ccc(F)cc1)C(N)=O [Compound 11] (X6-RLN[Phe(4-F)]-NH2)
4.8 ± 0.4,15.3 ± 3.1,CC(C)C[C@H](NC(=O)[C@H](CCCNC(=N)N)NC(=O)c1ccc2nc(-n3cccc3)sc2c1)C(=O)N[C@@H](CC(N)=O)C(=O)N[C@@H](Cc1ccc(F)cc1)C(N)=O [Compound 12] (X7-RLN[Phe(4-F)]-NH2)
2.6 ± 0.4,21.1 ± 7,CC(C)C[C@H](NC(=O)[C@H](CCCNC(=N)N)NC(=O)c1ccc2c(c1)nc(C(F)(F)F)n2C(C)C)C(=O)N[C@@H](CC(N)=O)C(=O)N[C@@H](Cc1ccc(F)cc1)C(N)=O [Compound 13] (X2-RLN[Phe(4-F)]-NH2)
2.8 ± 0.42,3.65 ± 0.92,Cc1nc(C(=O)N[C@@H](CCCNC(=N)N)C(=O)N[C@@H](CC(C)C)C(=O)N[C@@H](CC(N)=O)C(=O)N[C@@H](Cc2ccc(F)cc2)C(N)=O)nn1-c1cccc(C(F)(F)F)c1 [Compound 14] (X4-RLN[Phe(4-F)]-NH2)
219 ± 10,87 ± 14,Cc1cc(NC(=O)C2CCCCC2C(=O)N[C@@H](CC(C)C)C(=O)N[C@@H](CC(N)=O)C(=O)N[C@@H](Cc2ccc(F)cc2)C(N)=O)no1 (stereo partly shown) [Compound 15]
56.9 ± 1.9,21.9 ± 4.9,CC(C)C[C@H](NC(=O)[C@H](CCCNC(=N)N)NC(=O)[C@@H](N)CCCNC(=N)N)C(=O)Nc1cccc(Oc2ccccc2)c1 [Compound 24]
35 ± 2.03,29.8 ± 12,CC(C)C[C@H](NC(=O)[C@H](CCCNC(=N)N)NC(=O)[C@@H](N)CCCNC(=N)N)C(=O)Nc1cccc(OCc2ccccc2)c1 [Compound 25]
4.7 ± 0.7,8.81 ± 1.08,CC(C)C[C@H](NC(=O)[C@H](CCCNC(=N)N)NC(=O)[C@@H](N)CCCNC(=N)N)C(=O)NCc1cccc(Oc2ccccc2)c1 [Compound 26]
22.7 ± 2.72,8.55 ± 2.11,CC(C)C[C@@H](CNc1cccc(Oc2ccccc2)c1)NC(=O)[C@H](CCCNC(=N)N)NC(=O)[C@@H](N)CCCNC(=N)N [Compound 29]
58.2 ± 3.82,8.37 ± 4.24,CC(C)C[C@@H](CNc1cccc(OCc2ccccc2)c1)NC(=O)[C@H](CCCNC(=N)N)NC(=O)[C@@H](N)CCCNC(=N)N [Compound 30]
